From patent publication US20040132107A1, “Functional assay for g-protein-coupled receptors based on insect cells” (priority 2003, published 2004)

How the values were obtained:
human 5-HT1A GPCR = target: T1, human 5-HT1A GPCR (Homo sapiens, UniProt P08908); conditions: FIG. 16
T1 sequence (P08908 1-422): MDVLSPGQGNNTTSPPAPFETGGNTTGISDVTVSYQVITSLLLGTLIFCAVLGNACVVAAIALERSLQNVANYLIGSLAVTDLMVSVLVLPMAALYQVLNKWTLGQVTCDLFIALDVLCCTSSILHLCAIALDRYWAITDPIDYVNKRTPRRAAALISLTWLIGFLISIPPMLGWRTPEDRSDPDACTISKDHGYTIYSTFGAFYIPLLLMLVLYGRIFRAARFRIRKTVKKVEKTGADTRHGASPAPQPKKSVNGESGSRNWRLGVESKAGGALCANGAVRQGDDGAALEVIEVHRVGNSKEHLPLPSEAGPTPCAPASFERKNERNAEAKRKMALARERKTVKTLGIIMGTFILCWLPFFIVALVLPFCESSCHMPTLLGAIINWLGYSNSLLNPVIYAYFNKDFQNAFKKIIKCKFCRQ

human Dopamine D1A GPCR = human Dopamine D1A GPCR (Homo sapiens, UniProt P21728); test: DADR insect-based assay cell lines (Sf9; Dopamine D1A, Galpha16, aequorin), fractional luminescence
Method: In one embodiment, the assay system of the invention was implemented using the human dopamine D1 (hDD1) GPCR, which is normally coupled to a Gs-type G protein.
To assay GPCR antagonists required a modified protocol. […] Light output was monitored for 75 seconds. […] Data analysis was performed as described above. An optional 10 second rocking step was added after each individual well was measured, to ensure that the insect-based assay cells arrayed in the plate stayed in suspension
Agonist and antagonist concentration-response curves were obtained by plotting graphs of A/(A+L) on the Y-axis versusLOG10 of ligand concentration (Molar) on the X-axis. Curve fitting was performed using the software package GraphPad Prism (GraphPad Software, Inc., San Diego, Calif., USA). The 3- or 4-Parameter Logistic equations were used for non-linear regression, and to acquire derived values (EC50 and Hill Slope).

[1] = target: T2, human Thromboxane A2 GPCR (Homo sapiens, UniProt P21731); test: TA2R insect-based assay cell lines (Sf9, transiently transfected), fractional luminescence
T2 construct: expressed in transfected cells; host or cells: Sf9, transiently transfected
T2 sequence (P21731 1-343): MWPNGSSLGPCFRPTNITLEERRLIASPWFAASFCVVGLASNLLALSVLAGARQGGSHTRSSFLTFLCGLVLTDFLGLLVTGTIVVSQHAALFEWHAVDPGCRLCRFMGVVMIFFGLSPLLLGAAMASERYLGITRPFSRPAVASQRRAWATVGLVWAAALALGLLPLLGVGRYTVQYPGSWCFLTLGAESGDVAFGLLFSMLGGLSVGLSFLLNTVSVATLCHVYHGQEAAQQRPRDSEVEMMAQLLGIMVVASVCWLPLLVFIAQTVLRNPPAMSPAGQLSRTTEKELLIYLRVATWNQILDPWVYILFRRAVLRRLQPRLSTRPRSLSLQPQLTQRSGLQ
Method: Light output was monitored for 70 seconds. […] Data analysis was performed as described above
Agonist and antagonist concentration-response curves were obtained by plotting graphs of A/(A+L) on the Y-axis versusLOG10 of ligand concentration (Molar) on the X-axis.Curve fitting was performed using the software package GraphPad Prism (GraphPad Software, Inc., San Diego, Calif., USA). The 3- or 4-Parameter Logistic equations were used for non-linear regression, and to acquire derived values (EC50 and Hill Slope).

human Histamine H1 GPCR = target: T3, human Histamine H1 GPCR (Homo sapiens, UniProt P35367); test: HH1R insect-based assay cell lines (Sf9, transiently transfected), fractional luminescence
T3 construct: expressed in transfected cells; host or cells: Sf9, transiently transfected

[2] = target: human beta2 Adrenergic receptor (Homo sapiens, UniProt P07550); test: B2AR insect-based assay cell lines (Sf9, transiently transfected), fractional luminescence; conditions: FIG. 17
human 5-HT2A GPCR = human 5-HT2A GPCR (Homo sapiens, UniProt P28223); test: 5H2A insect-based assay cell lines (Sf9, transiently transfected), fractional luminescence; conditions: increasing concentrations of agonist; FIG. 14
[3] = 100 microM, cells expressing all three assay components

Sequence of human Dopamine D1A GPCR (P21728 whole entry): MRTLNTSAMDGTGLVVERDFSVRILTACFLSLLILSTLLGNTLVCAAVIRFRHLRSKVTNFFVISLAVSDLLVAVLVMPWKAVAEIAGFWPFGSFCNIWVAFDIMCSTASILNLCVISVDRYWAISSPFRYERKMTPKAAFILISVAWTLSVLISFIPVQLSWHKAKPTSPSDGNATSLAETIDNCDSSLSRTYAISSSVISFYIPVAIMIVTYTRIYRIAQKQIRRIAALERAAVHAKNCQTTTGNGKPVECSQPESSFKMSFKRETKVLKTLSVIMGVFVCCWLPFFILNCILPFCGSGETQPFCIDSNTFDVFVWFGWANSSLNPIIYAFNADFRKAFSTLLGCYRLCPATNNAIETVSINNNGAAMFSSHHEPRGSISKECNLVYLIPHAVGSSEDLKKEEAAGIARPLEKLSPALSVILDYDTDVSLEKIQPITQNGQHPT
T3 sequence (P35367 whole entry): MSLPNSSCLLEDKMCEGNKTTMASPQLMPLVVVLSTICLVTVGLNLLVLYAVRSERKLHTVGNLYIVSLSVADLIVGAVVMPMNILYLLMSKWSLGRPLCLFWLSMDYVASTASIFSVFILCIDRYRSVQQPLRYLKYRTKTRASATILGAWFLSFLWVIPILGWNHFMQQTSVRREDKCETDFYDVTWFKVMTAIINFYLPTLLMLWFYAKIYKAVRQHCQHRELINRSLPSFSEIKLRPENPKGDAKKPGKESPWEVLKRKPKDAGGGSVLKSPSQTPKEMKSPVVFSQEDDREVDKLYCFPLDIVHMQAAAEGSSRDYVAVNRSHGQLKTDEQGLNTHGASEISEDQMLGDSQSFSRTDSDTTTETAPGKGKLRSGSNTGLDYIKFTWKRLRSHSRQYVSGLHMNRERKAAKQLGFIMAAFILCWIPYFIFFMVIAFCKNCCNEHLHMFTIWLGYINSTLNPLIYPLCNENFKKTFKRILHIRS
Sequence of human beta2 Adrenergic receptor (P07550 whole entry): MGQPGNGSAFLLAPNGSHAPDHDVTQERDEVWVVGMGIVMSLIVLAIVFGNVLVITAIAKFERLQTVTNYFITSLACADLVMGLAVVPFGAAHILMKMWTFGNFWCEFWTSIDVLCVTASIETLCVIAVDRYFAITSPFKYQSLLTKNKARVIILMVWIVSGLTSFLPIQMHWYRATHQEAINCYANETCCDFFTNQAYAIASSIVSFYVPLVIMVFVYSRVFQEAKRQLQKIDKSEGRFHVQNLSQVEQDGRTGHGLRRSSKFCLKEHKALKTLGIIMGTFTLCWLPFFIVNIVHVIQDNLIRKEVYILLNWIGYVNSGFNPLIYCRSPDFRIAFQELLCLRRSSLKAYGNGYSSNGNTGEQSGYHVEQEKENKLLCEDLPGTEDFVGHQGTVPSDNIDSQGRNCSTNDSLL
Sequence of human 5-HT2A GPCR (P28223 whole entry): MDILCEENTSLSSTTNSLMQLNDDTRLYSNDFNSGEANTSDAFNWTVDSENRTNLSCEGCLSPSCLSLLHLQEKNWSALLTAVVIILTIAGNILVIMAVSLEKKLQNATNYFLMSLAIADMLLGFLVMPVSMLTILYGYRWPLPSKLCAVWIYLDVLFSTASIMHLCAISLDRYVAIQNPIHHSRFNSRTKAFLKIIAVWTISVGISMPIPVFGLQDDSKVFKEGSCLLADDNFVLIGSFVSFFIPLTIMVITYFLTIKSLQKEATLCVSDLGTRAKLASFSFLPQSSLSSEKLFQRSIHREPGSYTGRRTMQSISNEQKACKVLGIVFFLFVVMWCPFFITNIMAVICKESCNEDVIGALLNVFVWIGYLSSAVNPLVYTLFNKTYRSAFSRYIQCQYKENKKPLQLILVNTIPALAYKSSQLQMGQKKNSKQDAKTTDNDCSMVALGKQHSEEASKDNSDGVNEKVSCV

CC(C)NCC(O)COc1cccc2ccccc12 (racemic) [DL-propranalol]
effect of antagonist pre-incubation on activation by serotonin (human 5-HT1A GPCR; antagonist 10 microM, then serotonin): prevents subsequent activation

Oc1cc2c(cc1O)C(c1ccccc1)CNCC2 (stereo not shown) [SKF38393]
agonist concentration-activity curve (human Dopamine D1A GPCR; increasing concentrations of agonist, FIG. 5): characteristic sigmoidal agonist concentration-activity curve

O=C(O)CCC/C=C\C[C@@H]1[C@H](CNNC(=O)Nc2ccccc2)[C@H]2CC[C@@H]1O2 [SQ29,548]
block of U44069 agonist activity by pre-incubation with antagonist ([1]; FIG. 10): can be blocked
antagonist concentration-activity curve ([1]; varying antagonist against fixed U44069 at 10 microM, FIG. 10): Characteristic sigmoidal antagonist concentration-activity curves

CCCCC[C@H](O)/C=C/[C@H]1[C@@H]2CO[C@@H](C2)[C@@H]1C/C=C\CCCC(=O)O [U44069]
agonist concentration-activity curve ([1]; increasing concentrations of agonist, FIG. 9): characteristic sigmoidal agonist concentration-activity curve

OCCN1CCN(CC/C=C2/c3ccccc3Sc3ccc(C(F)(F)F)cc32)CC1 [cis-Flupenthixol]
block of dopamine agonist activation by pre-incubation with antagonist (human Dopamine D1A GPCR; pre-incubation with antagonist, then dopamine, FIGS. 4 and 6): can be blocked
antagonist concentration-activity curve (human Dopamine D1A GPCR; varying antagonist against fixed dopamine at 100 microM, FIG. 6): Characteristic sigmoidal antagonist concentration-activity curves

NCCc1c[nH]cn1 [histamine]
agonist concentration-activity curve (human Histamine H1 GPCR): characteristic sigmoidal agonist concentration-activity curve
fractional response to histamine in the absence of Galpha16 (human Histamine H1 GPCR): reduced in the absence of Galpha16, it is still significant
response in the absence of the Histamine H1 receptor (human Histamine H1 GPCR): no response

NC[C@H](O)c1ccc(O)c(O)c1 [nor-epinephrine]
response of assay cells to agonist [2, 3]: respond
agonist response in the absence of Galpha16 ([2]; cells without Galpha16): reduced in magnitude

NCCc1c[nH]c2ccc(O)cc12 [serotonin]
response of assay cells to agonist (human 5-HT1A GPCR; [3]): respond
agonist concentration-activity curve (human 5-HT2A GPCR): characteristic sigmoidal agonist concentration-activity curve

Cc1ccc(/C(=C\CN2CCCC2)c2ccccn2)cc1.Cl [triprolidone hydrochloride]
block of histamine agonist activity by pre-incubation with antagonist (human Histamine H1 GPCR; FIG. 12): can be blocked
antagonist concentration-activity curve (human Histamine H1 GPCR; varying antagonist against fixed histamine at 100 microM, FIG. 12): Characteristic sigmoidal antagonist concentration-activity curves
